Results published in patent US20110045082A1, “AGGLOMERATES BY CRYSTALLISATION” (priority 1999, published 2011).

What was measured:
Type in all cases: physicochemical
[1] = Average diameter of agglomerates; details: agglomerates as obtained after drying
[2] = Loose bulk density of the powder
[3] = Tapped bulk density of the powder
[4] = Compressibility of the powder
[5] = Particle size distribution
[6] = Table 1, agglomerated vs needle form
[7] = High flow (solution 15 l/h, acetone 312 l/h)
[8] = Low flow (flows decreased by a factor 2)
[9] = agitator 3000 RPM, 0.9 mm nozzle

O=C(O)[C@H]1/C(=C/CO)O[C@@H]2CC(=O)N21 [Example 5, potassium clavulanate]
average diameter [1]: 50-250 μm

O=C(O)[C@H]1/C(=C/CO)O[C@@H]2CC(=O)N21 [Example 3, potassium clavulanate]
average diameter [1]: 1000 μm

O=C(O)[C@H]1/C(=C/CO)O[C@@H]2CC(=O)N21 [Agglomerates of potassium clavulanate, potassium clavulanate]
Loose bulk density [2, 6]: 0.49 g/mL | Tapped bulk density [3, 6]: 0.68 g/mL | Compressibility [4, 6]: 28% | average diameter ([1]; listed as Example 8): 40-200 μm

O=C(O)[C@H]1/C(=C/CO)O[C@@H]2CC(=O)N21 [Example 10, potassium clavulanate]
Loose bulk density ([2]; agitator speed 1000 RPM): 0.39 g/mL | Loose bulk density ([2]; agitator speed 2000 RPM): 0.42 g/mL | Tapped bulk density ([3]; agitator speed 1000 RPM): 0.44 g/mL | Tapped bulk density ([3]; agitator speed 2000 RPM): 0.47 g/mL | Compressibility ([4]; agitator speed 1000 RPM): 11% | Compressibility ([4]; agitator speed 2000 RPM): 11% | particle size distribution 75-150 μm ([5]; agitator speed 1000 RPM): 6.5 volume % | particle size distribution 150-250 μm ([5]; agitator speed 1000 RPM): 20.7 volume % | particle size distribution 250-500 μm ([5]; agitator speed 1000 RPM): 60.8 volume % | particle size distribution 500-710 μm ([5]; agitator speed 1000 RPM): 6.1 volume % | particle size distribution <75 μm ([5]; agitator speed 1000 RPM): 5.1 volume % | particle size distribution >710 μm ([5]; agitator speed 1000 RPM): 0.2 volume % | particle size distribution 75-150 μm ([5]; agitator speed 2000 RPM): 2.4 volume % | particle size distribution 150-250 μm ([5]; agitator speed 2000 RPM): 9.5 volume % | particle size distribution 250-500 μm ([5]; agitator speed 2000 RPM): 57.3 volume % | particle size distribution 500-710 μm ([5]; agitator speed 2000 RPM): 27 volume % | particle size distribution <75 μm ([5]; agitator speed 2000 RPM): 1.8 volume % | particle size distribution >710 μm ([5]; agitator speed 2000 RPM): 1.5 volume %

O=C(O)[C@H]1/C(=C/CO)O[C@@H]2CC(=O)N21 [Needles of Potassium clavulanate, potassium clavulanate, reference compound]
Loose bulk density [2, 6]: 0.18 g/mL | Tapped bulk density [3, 6]: 0.36 g/mL | Compressibility [4, 6]: 50%

O=C(O)[C@H]1/C(=C/CO)O[C@@H]2CC(=O)N21 [Example 4, potassium clavulanate]
average diameter [1]: 500-1000 μm

potassium clavulanate [Example 12]
Loose bulk density ([2]; Nozzle diameter 0.9 mm): 0.22 g/mL | Loose bulk density ([2]; Nozzle diameter 1.2 mm): 0.36 g/mL | Tapped bulk density ([3]; Nozzle diameter 0.9 mm): 0.3 g/mL | Tapped bulk density ([3]; Nozzle diameter 1.2 mm): 0.44 g/mL | particle size distribution 75-150 μm ([5]; Nozzle diameter 0.9 mm): 43.3 volume % | particle size distribution 150-250 μm ([5]; Nozzle diameter 0.9 mm): 8 volume % | particle size distribution 250-500 μm ([5]; Nozzle diameter 0.9 mm): 1 volume % | particle size distribution 500-710 μm ([5]; Nozzle diameter 0.9 mm): 0.2 volume % | particle size distribution <75 μm ([5]; Nozzle diameter 0.9 mm): 46.3 volume % | particle size distribution >710 μm ([5]; Nozzle diameter 0.9 mm): 0.1 volume % | particle size distribution 75-150 μm ([5]; Nozzle diameter 1.2 mm): 50.6 volume % | particle size distribution 150-250 μm ([5]; Nozzle diameter 1.2 mm): 31.3 volume % | particle size distribution 250-500 μm ([5]; Nozzle diameter 1.2 mm): 1.9 volume % | particle size distribution 500-710 μm ([5]; Nozzle diameter 1.2 mm): 0 volume % | particle size distribution <75 μm ([5]; Nozzle diameter 1.2 mm): 15.9 volume % | particle size distribution >710 μm ([5]; Nozzle diameter 1.2 mm): 0.3 volume %

O=C(O)[C@H]1/C(=C/CO)O[C@@H]2CC(=O)N21 [Example 7, potassium clavulanate]
average diameter [1]: 500-1500 μm

O=C(O)[C@H]1/C(=C/CO)O[C@@H]2CC(=O)N21 [Example 11, potassium clavulanate]
Loose bulk density [2, 7]: 0.27 g/mL | Loose bulk density [2, 8]: 0.35 g/mL | Tapped bulk density [3, 7]: 0.36 g/mL | Tapped bulk density [3, 8]: 0.44 g/mL | Compressibility [4, 7]: 25% | Compressibility [4, 8]: 20% | particle size distribution 75-150 μm ([5]; High flow): 41.2 volume % | particle size distribution 150-250 μm ([5]; High flow): 9.3 volume % | particle size distribution 250-500 μm ([5]; High flow): 0.3 volume % | particle size distribution 500-710 μm ([5]; High flow): 0 volume % | particle size distribution <75 μm ([5]; High flow): 48.7 volume % | particle size distribution >710 μm ([5]; High flow): 0 volume % | particle size distribution 75-150 μm ([5]; Low flow): 50.4 volume % | particle size distribution 150-250 μm ([5]; Low flow): 1.1 volume % | particle size distribution 250-500 μm ([5]; Low flow): 0.6 volume % | particle size distribution 500-710 μm ([5]; Low flow): 0.4 volume % | particle size distribution <75 μm ([5]; Low flow): 48.8 volume % | particle size distribution >710 μm ([5]; Low flow): 0 volume %

O=C(O)[C@H]1/C(=C/CO)O[C@@H]2CC(=O)N21 [Example 9, potassium clavulanate]
Loose bulk density [2, 9]: 0.22 g/mL | Tapped bulk density [3, 9]: 0.30 g/mL | Compressibility [4, 9]: 27% | particle size distribution 75-150 μm ([5]; Table 2, 3000 RPM): 43.3 volume % | particle size distribution 150-250 μm ([5]; Table 2, 3000 RPM): 8 volume % | particle size distribution 250-500 μm ([5]; Table 2, 3000 RPM): 1 volume % | particle size distribution 500-710 μm ([5]; Table 2, 3000 RPM): 0.2 volume % | particle size distribution <75 μm ([5]; Table 2, 3000 RPM): 46.3 volume % | particle size distribution >710 μm ([5]; Table 2, 3000 RPM): 0.1 volume %

O=C(O)[C@H]1/C(=C/CO)O[C@@H]2CC(=O)N21 [Example 6, potassium clavulanate]
average diameter [1]: 10-200 μm

O=C(O)[C@H]1/C(=C/CO)O[C@@H]2CC(=O)N21 [Example 1, potassium clavulanate]
average diameter [1]: 100-1000 μm

O=C(O)[C@H]1/C(=C/CO)O[C@@H]2CC(=O)N21 [Example 2, potassium clavulanate]
average diameter [1]: 500-1500 μm
